Test system: human hepatoma Huh-7 cell line harboring a HCV replicon
Assay: HCV replicon assay (inhibition of viral replication, luciferase readout)
Assay type: cell-based
Conditions: Huh-7 HCV replicon cells, 3 days incubation; for inhibition at 2 µM: Hepatitis C virus, 72 h
Method: The anti-HCV activity of the compounds of this invention was tested in a human hepatoma Huh-7 cell line harboring a HCV replicon. The assay comprised the following steps:
Step 1: Compound Preparation and Serial Dilution.
Serial dilution was performed in 100% DMSO in a 384-well plate. A solution containing a compound at 225-fold concentration of the starting final serial dilution concentration was prepared in 100% DMSO and 15 μL added to the pre-specified wells in column 3 or 13 of a polypropylene 384-well plate. The rest of the 384-well plate was filled with 10 μL 100% DMSO except for columns 23 and 24, where 10 μL of 500 μM a HCV protease inhibitor (ITMN-191) in 100% DMSO was added. The HCV protease inhibitor was used a control of 100% inhibition of HCV replication. The plate was then placed on a Biomek FX Workstation to start the serial dilution. The serial dilution was performed for ten cycles of 3-fold dilution from column 3 to 12 or from column 13 to 22.
Step 2: Cell Culture Plate Preparation and Compound Addition
To each well of a black polypropylene 384-well plate, 90 μL of cell media containing 1600 suspended Huh-7 HCV replicon cells was added with a Biotek uFlow Workstation. A volume of 0.4 μL of the compound solution was transferred from the serial dilution plate to the cell culture plate on a Biomek FX Workstation. The DMSO concentration in the final assay condition was 0.44%. The plates were incubated for 3 days at 37° C. with 5% CO2 and 85% humidity.
Step 3: Detection of Cytotoxicity and Inhibition of Viral Replication
a) Assessment of cytotoxicity: The media in the 384-well cell culture plate was aspirated with a Biotek EL405 plate-washer. A volume of 50 μL of a solution containing 400 nM Calcein AM in 100% PBS was added to each well of the plate with a Biotek uFlow Workstation. The plate was incubated for 30 minutes at room temperature before the fluorescence signal ([…]) was measured with a Perkin Elmer Envision Plate Reader.
b) Assessment of inhibition of viral replication: The calcein-PBS solution in the 384-well cell culture plate was aspirated with a Biotek EL405 plate-washer. A volume of 20 μL of Dual-Glo luciferase buffer (Promega, Dual-Glo Luciferase Assay Reagent, cat. #E298B) was added to each well of the plate with a Biotek uFlow Workstation. The plate was incubated for 10 minutes at room temperature. A volume of 20 μL of a solution containing 1:100 mixture of Dual-Glo Stop & Glo substrate (Promega, Dual-Glo Luciferase Assay Reagent, cat. #E313B) and Dual-Glo Stop & Glo buffer (Promega, Dual-Glo Luciferase Assay Reagent, cat. #E314B) was then added to each well of the plate with a Biotek uFlow Workstation. The plate was incubated at room temperature for 10 minutes before the luminescence signal was measured with a Perkin Elmer Envision Plate Reader.
The percent cytotoxicity was determined by calcein AM conversion to fluorescent product. The average fluorescent signal from the DMSO control wells was defined as 100% nontoxic. The individual fluorescent signal from testing compound treated well was divided by the average signal from DMSO control wells and then multiplied by 100% to get the percent viability. The percent anti-HCV replication activity was determined by the luminescence signal from the testing well compared to DMSO control wells. The background signal was determined by the average luminescence signal from the HCV protease inhibitor treated wells and was subtracted from the signal from the testing wells as well as the DMSO control wells. Following 3-fold serial dilutions, the EC50 and CC50 values were calculated by fitting % inhibition at each concentration to the following equation: % inhibition=100%/[EC50/[I])^b+1]
Where b is Hill's coefficient. See, for reference, Hill, A. V., The Possible Effects of the Aggregation of the Molecules of Hæmoglobin on its Dissociation Curves, J. Physiol. 40: iv-vii. (1910). […]

| Compound | % inhibition at 2μM | inhibition at 2 µM |
| --- | --- | --- |
| 5-(3,3-Dimethyl-but-1-ynyl)-3-{(trans-4-methyl-cyclohexanecarbonyl)-[trans-4-(1-oxy-pyridin-3-yloxy)-cyclohexyl]-amino}-thiophene-2-carboxylic acid [Compound 24] | 99.9% | – |
| 5-(3,3-dimethylbut-1-ynyl)-3-((1r,4R)-4-methyl-N-((1s,4S)-4-(oxetan-3-yloxy)cyclohexyl)cyclohexanecarboxamido)-5-(2-(1-(trifluoromethyl)cyclopropyl)ethynyl)thiophene-2-carboxylic acid [Compound 347] | 99.97% | – |
| C[C@@H]1CC[C@@H](C(=O)N(c2cc(C#CC(C)(C)C)sc2C(=O)O)[C@H]2CC[C@@H](OC3CCOC3)CC2)[C@@H](O)C1 (single isomer, unassigned) [Compound 228] | – | 99.9% |
| CC1=CCC(C(=O)N(c2cc(C#CC(C)(C)C)sc2C(=O)O)[C@H]2CC[C@H](O[C@H]3CCOC3)CC2)[C@@H](C)C1 (single isomer, unassigned) [Compound 302, 5-(3,3-dimethyl-but-1-ynyl)-3-{(4,6S-dimethyl-cyclohex-3-enecarbonyl)-[4-(tetrahydro-furan-3S-yloxy)-trans-cyclohexyl]-amino}-thiophene-2-carboxylic acid] | – | 100% |
| CC1=CCC(C(=O)N(c2cc(C#CC(C)(C)C)sc2C(=O)O)[C@H]2CC[C@H](O[C@H]3CCOC3)CC2)[C@H](C)C1 (single isomer, unassigned) [Compound 303] | – | 99.9% |
| CC1=CCC(C(=O)N(c2cc(C#CC(C)(C)C)sc2C(=O)O)[C@H]2CC[C@H](O[C@@H]3CCOC3)CC2)[C@H](C)C1 (single isomer, unassigned) [Compound 305, 5-(3,3-dimethyl-but-1-ynyl)-3-{(4,6R-dimethyl-cyclohex-3-enecarbonyl)-[4-(tetrahydro-furan-3R-yloxy)-trans-cyclohexyl]-amino}-thiophene-2-carboxylic acid] | – | 100% |
| CC1=CCC(C(=O)N(c2cc(C#CC(C)(C)C)sc2C(=O)O)[C@H]2CC[C@H](O[C@@H]3CCOC3)CC2)[C@H](C)C1 (single isomer, unassigned) [Compound 306, 5-(3,3-Dimethyl-but-1-ynyl)-3-{(4,6R-dimethyl-cyclohex-3-enecarbonyl)-[4-(tetrahydro-furan-3R-yloxy)-trans-cyclohexyl]-amino}-thiophene-2-carboxylic acid] | 99.99% | – |
| CC1=CCC(C(=O)N(c2cc(C#CC(C)(C)C)sc2C(=O)O)[C@H]2CC[C@H](O[C@@H]3CCOC3)CC2)[C@@H](C)C1 (single isomer, unassigned) [Compound 307, 5-(3,3-Dimethyl-but-1-ynyl)-3-{(4,6S-dimethyl-cyclohex-3-enecarbonyl)-[4-(tetrahydro-furan-3R-yloxy)-trans-cyclohexyl]-amino}-thiophene-2-carboxylic acid] | – | 100% |
| CC1=CCC(C(=O)N(c2cc(C#CC(C)(C)C)sc2C(=O)O)[C@H]2CC[C@H](O[C@@H]3CCOC3)CC2)[C@@H](C)C1 (single isomer, unassigned) [Compound 308, 5-(3,3-Dimethyl-but-1-ynyl)-3-{(4,6S-dimethyl-cyclohex-3-enecarbonyl)-[4-(tetrahydro-furan-3R-yloxy)-trans-cyclohexyl]-amino}-thiophene-2-carboxylic acid] | 99.99% | – |
| CC(C)(C)C#Cc1cc(N(C(=O)[C@H]2CC[C@H](C)CC2)[C@H]2CC[C@H](Oc3ccccn3)CC2)c(C(=O)O)s1 [Compound 1, 5-(3,3-Dimethyl-but-1-ynyl)-3-{(trans-4-methyl-cyclohexanecarbonyl)-[trans-4-(pyridin-2-yloxy)-cyclohexyl]-amino}-thiophene-2-carboxylic acid] | – | 99.8% |
| CC(C)(C)C#Cc1cc(N(C(=O)[C@H]2CC[C@H](C)CC2)[C@H]2CC[C@H](Oc3cnccn3)CC2)c(C(=O)O)s1 [Compound 2, 5-(3,3-Dimethyl-but-1-ynyl)-3-{(trans-4-methyl-cyclohexanecarbonyl)-[trans-4-(pyrazin-2-yloxy)-cyclohexyl]-amino}-thiophene-2-carboxylic acid] | – | 99.6% |
